“And” between values parts separate entries of the source, which are not always exact repeats. Equal values may be shown once.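 Where inhibition never reached the appropriate level, the endpoint shown equals the highest concentration tested. Otherwise, values were interpolated linearly from a five-concentration, 48-hour dose response in 96-well plates. Abbreviation: GI50, concentration required for 50% inhibition of growth. Definition used: TGI = concentration required for complete inhibition of growth.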

Among the test systems are UACC-62 melanoma; DU-145 prostate; SW-620 colon; RXF 393 renal; ACHN renal; SK-MEL-5 melanoma; CAKI-1 renal; HCC-2998 colon; BT-549 breast; SF-268 CNS.
Common to all, as to assay: NCI tumour cell line growth inhibition, 48 h

`O=[N+]([O-])c1cccc(-c2nc3sccn3c2-c2ccnc(NCCCNS(=O)(=O)c3ccc(F)cc3)n2)c1`: the GI50 in the assay with UACC-62 melanoma was 1.2 µM; in the assay with DU-145 prostate it was 2.65 µM; with SW-620 colon it was 3.95 µM; in the assay with RXF 393 renal, 6.95 µM; in the assay with ACHN renal, 2.19 µM; in the assay with SK-MEL-5 melanoma it was 1.06 µM. Further, the GI50 in the assay on CAKI-1 renal is 2.33 µM; in the assay with HCC-2998 colon it was 7.29 µM; in the assay with BT-549 breast, 2.14 µM; in the assay on SF-268 CNS, 2.92 µM. Moreover, the TGI is 4.21 µM in the assay with UACC-62 melanoma; 12.9 µM in the assay on DU-145 prostate; > 100 µM in the assay with SW-620 colon; > 100 µM in the assay on RXF 393 renal; 10.8 µM in the assay on ACHN renal; 2.45 µM with SK-MEL-5 melanoma. The TGI in the assay with CAKI-1 renal is > 100 µM; with HCC-2998 colon it was > 100 µM; with BT-549 breast it was 7.03 µM; in the assay on SF-268 CNS, > 100 µM.
For the molecule `COC(=O)c1c2c(c(C)[n+]([O-])c1C)C(=O)C=C(NCc1ccc(Cl)cc1)C2=O`, the GI50 in the assay with UACC-62 melanoma was 0.046 µM; in the assay with DU-145 prostate, 1.09 µM; with SW-620 colon it was 0.143 µM; in the assay with RXF 393 renal, 1.22 µM; in the assay on ACHN renal, 0.233 µM; in the assay with SK-MEL-5 melanoma it was 0.176 µM. Moreover, the GI50 in the assay with CAKI-1 renal is 0.109 µM; in the assay on HCC-2998 colon it was 0.354 µM; in the assay on BT-549 breast, 1.22 µM; in the assay with SF-268 CNS it was 0.747 µM. Moreover, the TGI with UACC-62 melanoma is 1.02 µM; with DU-145 prostate, 2.32 µM; in the assay with SW-620 colon, 1.37 µM; with RXF 393 renal, 2.53 µM; in the assay with ACHN renal it was 1.91 µM; in the assay on SK-MEL-5 melanoma it was 0.337 µM. Besides, the TGI in the assay on CAKI-1 renal was found to be 2.18 µM; with HCC-2998 colon, 1.55 µM; in the assay with BT-549 breast, 2.58 µM; in the assay on SF-268 CNS, 2.96 µM.
For the molecule `Nc1nc(-n2cccn2)nc(-n2cccn2)c1Br`, the GI50 in the assay on UACC-62 melanoma, in the assay with DU-145 prostate, in the assay with SW-620 colon, with RXF 393 renal, in the assay on ACHN renal and in the assay with SK-MEL-5 melanoma was > 100 µM in each case. In addition, the GI50 is 93.7 µM in the assay on CAKI-1 renal, > 100 µM in the assay with HCC-2998 colon, > 100 µM with BT-549 breast and > 100 µM in the assay on SF-268 CNS. In addition, the TGI in the assay with UACC-62 melanoma, with DU-145 prostate, in the assay on SW-620 colon, with RXF 393 renal, with ACHN renal and in the assay with SK-MEL-5 melanoma was > 100 µM in each case. In addition, the TGI with CAKI-1 renal, with HCC-2998 colon, with BT-549 breast and with SF-268 CNS was > 100 µM throughout.
For the molecule `CC[C@@]1(O)C(=O)NCc2c1cc1n(c2=O)Cc2cc3cc4c(cc3nc2-1)OCO4`, the GI50 is 0.243 µM in the assay on UACC-62 melanoma; 0.13 µM in the assay on DU-145 prostate; 0.352 µM in the assay with SW-620 colon; 0.803 µM in the assay with RXF 393 renal; 0.398 µM in the assay with ACHN renal; 1.23 µM in the assay on SK-MEL-5 melanoma. The GI50 in the assay with CAKI-1 renal is 0.417 µM; in the assay on HCC-2998 colon it was 0.984 µM; in the assay with BT-549 breast, 4.15 µM; with SF-268 CNS, 0.236 µM. The TGI in the assay with UACC-62 melanoma is 29.4 µM; with DU-145 prostate, 2.02 µM; with SW-620 colon, > 26.3 µM; in the assay with RXF 393 renal, > 100 µM; with ACHN renal it was > 13.2 µM; in the assay on SK-MEL-5 melanoma, 27.8 µM. The TGI is > 9.04 µM with CAKI-1 renal, > 89.1 µM in the assay on HCC-2998 colon, > 100 µM with BT-549 breast and > 30.7 µM with SF-268 CNS.
As for `COc1cc(N2CCC(N(C)C)CC2)ccc1Nc1ncc(Cl)c(Nc2ccccc2P(C)(C)=O)n1`, the GI50 is 3.07 µM and 0.775 µM in the assay with UACC-62 melanoma; 0.972 µM and 0.545 µM in the assay with DU-145 prostate; 1.33 µM and 0.213 µM in the assay on SW-620 colon; 0.442 µM and 0.202 µM with RXF 393 renal; 0.972 µM in the assay with ACHN renal; 4.34 µM and 2.72 µM with SK-MEL-5 melanoma. Moreover, the GI50 was 3.24 µM and 0.326 µM in the assay with CAKI-1 renal; 3.6 µM and 0.446 µM in the assay on HCC-2998 colon; 2.98 µM and 0.791 µM in the assay with BT-549 breast; 1.17 µM and 0.386 µM with SF-268 CNS. The TGI was 20.2 µM and > 5.16 µM with UACC-62 melanoma; > 25.2 µM and 3.8 µM with DU-145 prostate; > 26.5 µM and 6.65 µM with SW-620 colon; 1.88 µM and 0.874 µM in the assay on RXF 393 renal; > 9.65 µM with ACHN renal; 17 µM and > 6.71 µM with SK-MEL-5 melanoma. Besides, the TGI with CAKI-1 renal is 10.5 µM and > 4.56 µM; in the assay on HCC-2998 colon, > 52.2 µM; in the assay on BT-549 breast, 9.97 µM and 4.35 µM; in the assay with SF-268 CNS, 5.04 µM and 2.76 µM.
In the case of `CC1CCC2(OC1)OC1CC3C4CC=C5CC(OC6OC(CO)C(OC7OC(C)C(OC8OC(C)C(O)C(O)C8O)C(O)C7O)C(O)C6OC6OC(C)C(O)C(O)C6O)CCC5(C)C4CCC3(C)C1C2C` (stereo not given), the TGI came to 1.51 µM in the assay on UACC-62 melanoma; 2.54 µM in the assay on DU-145 prostate; 2.89 µM in the assay on SW-620 colon; 2.05 µM with RXF 393 renal; 2.79 µM in the assay on ACHN renal; 3.06 µM in the assay with SK-MEL-5 melanoma. Further, the TGI in the assay on CAKI-1 renal turned out to be 2.55 µM; with HCC-2998 colon it was 1.37 µM; in the assay on BT-549 breast it was 3.07 µM; in the assay on SF-268 CNS it was 2.03 µM.

For the origin of these results see PubChem BioAssay (NCI).
